Here are results for four compounds from ChEMBL document CHEMBL5244242, “1,4-Benzodioxane, an evergreen, versatile scaffold in medicinal chemistry: A review of its recent applications in drug design” (Eur J Med Chem, 2020).

The subject of assay [1] is Escherichia coli. The assay is described as follows: Antibacterial activity against Escherichia coli FabH assessed as bacterial growth inhibition incubated for 24 hrs by MTT based ELISA analysis. The format is functional, organism-based.
Assay [2] has as its system Bacillus subtilis. Briefly: Antibacterial activity against Bacillus subtilis assessed as bacterial growth inhibition incubated for 24 hrs by MTT based ELISA analysis. The format is functional. For orientation: In an ELISA, binding on a coated surface is turned into a signal by an enzyme label.
Assay [3] has as its system Staphylococcus aureus. The assay is described as follows: Antibacterial activity against Staphylococcus aureus assessed as bacterial growth inhibition incubated for 24 hrs by MTT based ELISA analysis. The class given is functional.
The test system of assay [4] is HeLa. The assay is described as follows: Anticancer activity against human HeLa cells assessed as cell growth inhibition incubated for 24 hrs by MTT assay. The class given is functional, cell-based. For orientation: Tetrazolium dyes change colour on reduction, which living cells bring about.
For assay [5], the system named is A549. Briefly: Anticancer activity against human A549 cells assessed as cell growth inhibition incubated for 24 hrs by MTT assay. The format is functional, cell-based. The note with it: A549, 24 h.
The subject of assay [6] is U-251. Briefly: Anticancer activity against human U-251 cells assessed as cell growth inhibition incubated for 24 hrs by MTT assay. Particulars: U-251, 24 h. The class given is functional, cell-based.
Assay [7] deals with T1, Tyrosine-protein kinase JAK3 (Homo sapiens, UniProt P52333).
T1 sequence (P52333 whole entry): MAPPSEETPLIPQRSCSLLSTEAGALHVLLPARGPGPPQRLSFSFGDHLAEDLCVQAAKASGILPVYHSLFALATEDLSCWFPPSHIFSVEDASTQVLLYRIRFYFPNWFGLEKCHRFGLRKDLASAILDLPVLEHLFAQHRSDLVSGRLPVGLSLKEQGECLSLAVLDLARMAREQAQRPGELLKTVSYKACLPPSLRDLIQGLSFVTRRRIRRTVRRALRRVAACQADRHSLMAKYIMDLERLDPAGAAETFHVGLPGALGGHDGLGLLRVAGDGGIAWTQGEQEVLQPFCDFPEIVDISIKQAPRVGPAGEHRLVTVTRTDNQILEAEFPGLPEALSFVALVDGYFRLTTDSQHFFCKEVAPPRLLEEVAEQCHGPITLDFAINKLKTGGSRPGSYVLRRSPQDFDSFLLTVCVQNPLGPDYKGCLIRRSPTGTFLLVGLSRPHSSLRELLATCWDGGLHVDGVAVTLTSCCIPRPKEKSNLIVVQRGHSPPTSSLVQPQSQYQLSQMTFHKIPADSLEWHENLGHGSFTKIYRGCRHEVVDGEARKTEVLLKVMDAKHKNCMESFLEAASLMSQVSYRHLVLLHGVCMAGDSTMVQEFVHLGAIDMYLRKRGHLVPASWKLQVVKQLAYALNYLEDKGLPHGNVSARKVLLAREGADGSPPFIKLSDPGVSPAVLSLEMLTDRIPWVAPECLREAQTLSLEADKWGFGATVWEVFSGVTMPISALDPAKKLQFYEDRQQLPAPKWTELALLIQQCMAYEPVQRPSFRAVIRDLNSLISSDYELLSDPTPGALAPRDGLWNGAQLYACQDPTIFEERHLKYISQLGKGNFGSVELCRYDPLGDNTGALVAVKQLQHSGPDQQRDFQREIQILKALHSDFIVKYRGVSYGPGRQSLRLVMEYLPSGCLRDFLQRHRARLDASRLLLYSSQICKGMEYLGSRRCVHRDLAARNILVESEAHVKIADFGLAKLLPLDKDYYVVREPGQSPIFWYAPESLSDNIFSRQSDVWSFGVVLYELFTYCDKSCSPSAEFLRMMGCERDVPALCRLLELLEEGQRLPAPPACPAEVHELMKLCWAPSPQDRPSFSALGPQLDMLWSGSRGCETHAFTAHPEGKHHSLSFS
The assay is described as follows: Inhibition of JAK3 (unknown origin) incubated for 20 mins.

Assay [8] concerns HepG2. Briefly: Anticancer activity against human HepG2 cells assessed as cell growth inhibition incubated for 24 hrs by MTT assay. The class given is functional, cell-based. Particulars: HepG2, 24 h.
In assay [9] the target is Prostaglandin G/H synthase 1 (Homo sapiens, UniProt P23219). The assay is described as follows: Inhibition of COX1 (unknown origin).
Sequence of Prostaglandin G/H synthase 1 (P23219 whole entry): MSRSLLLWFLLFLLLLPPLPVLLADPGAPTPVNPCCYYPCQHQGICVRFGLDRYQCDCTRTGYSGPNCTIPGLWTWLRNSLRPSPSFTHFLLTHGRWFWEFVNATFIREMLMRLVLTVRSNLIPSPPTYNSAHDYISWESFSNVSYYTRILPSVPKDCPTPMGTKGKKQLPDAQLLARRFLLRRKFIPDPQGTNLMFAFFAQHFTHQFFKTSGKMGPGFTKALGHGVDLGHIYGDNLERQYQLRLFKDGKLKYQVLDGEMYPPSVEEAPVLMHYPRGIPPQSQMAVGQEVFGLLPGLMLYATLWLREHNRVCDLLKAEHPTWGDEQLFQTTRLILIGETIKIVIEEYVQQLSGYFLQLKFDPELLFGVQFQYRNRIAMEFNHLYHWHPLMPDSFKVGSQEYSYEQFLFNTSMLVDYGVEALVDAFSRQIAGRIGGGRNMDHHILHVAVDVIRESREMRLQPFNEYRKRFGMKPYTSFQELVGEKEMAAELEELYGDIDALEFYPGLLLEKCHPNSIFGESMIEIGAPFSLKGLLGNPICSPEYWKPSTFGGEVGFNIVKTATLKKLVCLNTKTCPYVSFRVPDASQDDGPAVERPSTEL
Assay [10] has as its target T2, Prostaglandin G/H synthase 2 (Homo sapiens, UniProt P35354).
T2 sequence (P35354 whole entry): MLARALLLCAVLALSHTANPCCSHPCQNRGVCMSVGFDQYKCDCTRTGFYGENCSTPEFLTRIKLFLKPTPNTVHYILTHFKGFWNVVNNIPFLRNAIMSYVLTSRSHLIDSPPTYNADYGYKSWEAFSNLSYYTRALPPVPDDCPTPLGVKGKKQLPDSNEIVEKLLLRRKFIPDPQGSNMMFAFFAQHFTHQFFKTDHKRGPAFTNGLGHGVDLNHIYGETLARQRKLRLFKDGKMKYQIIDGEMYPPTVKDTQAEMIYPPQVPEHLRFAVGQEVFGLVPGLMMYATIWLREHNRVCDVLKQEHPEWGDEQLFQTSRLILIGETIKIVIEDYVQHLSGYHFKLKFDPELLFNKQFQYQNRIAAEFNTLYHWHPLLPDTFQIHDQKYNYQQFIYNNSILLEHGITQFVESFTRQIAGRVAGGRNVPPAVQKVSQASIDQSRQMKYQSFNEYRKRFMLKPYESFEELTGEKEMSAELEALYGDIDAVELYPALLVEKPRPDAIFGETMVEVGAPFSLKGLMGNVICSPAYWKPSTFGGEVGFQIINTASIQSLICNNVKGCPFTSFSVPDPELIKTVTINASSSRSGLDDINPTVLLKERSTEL
Briefly: Inhibition of COX2 (unknown origin).

In general, IC50 refers to the concentration that gives 50% inhibition. For orientation: MIC means the lowest concentration found to suppress growth. Take `O=C(N/N=C/C=C/c1ccccc1[N+](=O)[O-])c1cccc2c1OCCO2`: in assay [1], the half-inhibitory concentration (IC50) was determined as 3500 nM. In addition, the MIC in assay [2] amounted to 6 µg/mL; in [3], 1.5 µg/mL.

In the case of `O=C(OCCn1c([N+](=O)[O-])cnc1/C=C/c1ccc(Cl)cc1Cl)c1ccc2c(c1)OCCO2`, the half-maximal inhibitory concentration (IC50) in assay [4] came to 21 nM; in assay [5], 65 nM; in [6], 44 nM; in [7] it was 9 nM; in [8], 16 nM.

For the compound `COc1cc(C2Oc3cc(C=Cc4cc(O)cc(O)c4)ccc3OC2CO)cc(OC)c1O` (stereo not drawn), the IC50 in assay [9] came out at 1900 nM; in assay [10] it was 9900 nM.

Consider `O=C(CN1CCN(c2ccccn2)CC1)N1C(=O)S/C(=C\c2ccc3c(c2)OCCO3)C1=O`, for which the half-maximal inhibitory concentration (IC50) in [1] worked out at 60 nM. The minimal inhibitory concentration (MIC) in assay [2] and in assay [3] was 1.5 µM in each case.
